Reference: patent US20200163896A1, “FLOATABLE PHARMACEUTICAL MICROCAPSULE COMPOSITION” (Nanyang Technological University, priority 2017, published 2020)
Like-named read-outs stand apart in the source and are kept apart here.

What was measured:
[1] = In vitro drug release in SGF for 48 h; type: physicochemical; details: 37° C., casein 0-5% (w/v)
Experimental: In vitro release study was conducted in SGF for 48 h. In some experiments, the study was conducted in SGF, followed by SIF, where the total duration in SGF and SIF is 48 h. Each microcapsule sample (20 mg) was added to a bottle containing SGF or SIF medium (20 mL). Both SGF and SIF bottles were placed in a 37° C. rotating incubator. At different time points, half of the medium (10 mL) in each bottle was extracted and replaced with 10 mL new medium. The time points included intervals of hours within a 48-hour period. The drug content in the extracted medium was analyzed using RP-HPLC with the procedure mentioned in Example 1 for determining encapsulation efficiency.

[2] = cited from earlier work
[3] = Plasma pharmacokinetics after oral gavage in mice; type: in vivo; details: for MRT: mouse, plasma, oral, Table 3
Experimental: The experimental mice were divided into two groups (control and F2) each comprising of five animals. Control formulation (as a solution) was prepared fresh each experimental day in 0.6% methyl cellulose diluted with saline solution. Mice were subsequently administered with 200 ul (control) or 300 μl (pellet) single dose of drug solution at LD:CD:ENT=10:2.5:20 mg·kg^−1 (Group 1, conventional formulation) and LD:CD:ENT=10:2.5:20 mg·kg^−1 (Group 2, F2 via oral gavage using a feeding syringe. At stipulated time points of 0.25, 0.5, 1, 2, 4, 8, 12, 24 hr, the mice were euthanized and blood was collected via cardiac puncture with ethylenediaminetetraacetic acid (EDTA) as the anticoagulant. The blood samples were then centrifuged (4,500 rpm) for 10 min at 25° C. to obtain the plasma. In addition, the brain was harvested and flash freeze in liquid nitrogen. Samples were stored in −80° C. before further analysis via LC/MS. Analysis of drugs in plasma and brain was conducted using LC/MS (Ribeiro et al., (2015). Bioanalysis, 7, 207-220). An Agilent 1290 HPLC system with an Agilent 6120 Quadrupole Mass Spectrometer was used to measure plasma and brain concentrations of drugs. The mobile phase consisted of a gradient of (A) 0.1% (v/v) formic acid (FA) and a mixture of ACN:MeOH (90:10, v/v) containing 0.1% (v/v) FA.
XBridge C8 column (150×4.6 mm; particle size 5 μm) was used at 30° C. The injection volume of samples was 20 μl. Plasma and brain extracted solution were mixed with internal standard and extracted by solid-phase extraction. The calibration curves were linear over the range of 2 to 2000 ng/mL for LD, 2 to 400 ng/mL for CD and 5 to 3000 ng/mL for ENT.

[4] = casein-microcapsule versus control

| SMILES | Release rate of drug from microcapsules versus casein concentration [1] | Log P [2] | further results |
| --- | --- | --- | --- |
| C[C@@](Cc1ccc(O)c(O)c1)(NN)C(=O)O [CD, carbidopa] | independent of casein concentration | – | – |
| NNC(=O)c1ccncc1 [ISO, isoniazid] | independent of casein concentration | −0.7 | – |
| CO[C@H]1/C=C/O[C@@]2(C)Oc3c(C)c(O)c4c(O)c(c(/C=N/N5CCN(C)CC5)c(O)c4c3C2=O)NC(=O)/C(C)=C\C=C\[C@H](C)[C@H](O)[C@@H](C)[C@@H](O)[C@@H](C)[C@H](OC(C)=O)[C@@H]1C [RIF, rifampicin] | – | 4.24 | – |

Now from value to compound, other results behind:

| Release rate of drug from microcapsules versus casein concentration [1] | SMILES | Log P [2] | further results |
| --- | --- | --- | --- |
| independent of casein concentration | CC[C@@H](CO)NCCN[C@@H](CC)CO [ETH, ethambutol] | −0.14 | – |
| independent of casein concentration | N[C@@H](Cc1ccc(O)c(O)c1)C(=O)O [LD, levodopa] | – | increase of MRT of levodopa [3, 4]: ~4 ×; increase of bioavailability (AUC) of levodopa [3, 4]: 2.8 ×; MRT ([3]; given as casein-microcapsule, read-out: mean residence time (MRT) of levodopa, casein-microcapsule): 10.1 h; MRT ([3]; given as control formulation, read-out: mean residence time (MRT) of levodopa, control): 2.6 h |
| independent of casein concentration | CN(C)C(=N)N=C(N)N [MET, metformin] | – | – |
